From patent EP2108954A1, “A test system for detecting intracellular cyclic nucleotide level and methods and uses thereof” (Max-Planck-Gesellschaft zur Förderung der Wissenschaften …, priority 2008, dated 2009)

Assays:
Or22a and Or83b = biological target: T1, Or22a and Or83b (Drosophila melanogaster, UniProt P81909+Q9VNB5); assay: Radioreceptor assay of cAMP content of HEK293 cells expressing Or22a and Or83b; format: cell-based; conditions: 100 nM Etb for 15 min; n = 3 experiments; control 1.28 ± 0.06
T1 construct: expressed in transfected cells; host or cells: HEK293
T1 sequence (P81909 1-397): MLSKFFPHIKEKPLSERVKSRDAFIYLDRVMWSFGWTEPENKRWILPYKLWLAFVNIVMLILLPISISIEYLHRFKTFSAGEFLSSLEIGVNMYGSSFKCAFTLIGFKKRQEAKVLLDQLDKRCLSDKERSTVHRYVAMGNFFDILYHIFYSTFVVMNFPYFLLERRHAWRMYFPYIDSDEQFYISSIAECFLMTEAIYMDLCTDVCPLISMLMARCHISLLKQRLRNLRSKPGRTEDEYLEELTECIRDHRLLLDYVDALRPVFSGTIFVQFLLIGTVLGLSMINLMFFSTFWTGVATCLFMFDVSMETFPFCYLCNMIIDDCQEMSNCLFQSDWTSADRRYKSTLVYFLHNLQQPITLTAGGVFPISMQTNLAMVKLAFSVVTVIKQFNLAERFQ
T1 sequence (Q9VNB5 1-486): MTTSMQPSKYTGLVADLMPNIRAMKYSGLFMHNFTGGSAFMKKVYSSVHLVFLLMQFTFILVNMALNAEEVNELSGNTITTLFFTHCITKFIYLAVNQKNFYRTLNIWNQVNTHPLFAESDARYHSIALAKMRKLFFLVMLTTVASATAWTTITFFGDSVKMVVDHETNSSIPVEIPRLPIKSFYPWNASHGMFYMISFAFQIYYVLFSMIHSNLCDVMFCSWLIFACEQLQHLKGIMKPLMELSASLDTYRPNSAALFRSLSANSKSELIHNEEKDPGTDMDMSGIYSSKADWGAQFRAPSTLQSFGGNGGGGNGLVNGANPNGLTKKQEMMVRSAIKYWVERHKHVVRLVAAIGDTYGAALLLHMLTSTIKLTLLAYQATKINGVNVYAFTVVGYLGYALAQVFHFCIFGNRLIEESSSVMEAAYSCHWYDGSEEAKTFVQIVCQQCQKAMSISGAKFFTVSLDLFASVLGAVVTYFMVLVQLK
Description: Monolayers of HEK293 cells were incubated for 30 min in HEPES Ringer's buffer containing 1 mM isobutylmethylxanthine and stimulated with 100 nM Etb for 15 min. The reaction was stopped with 96% ethanol, and after evaporation, 50 mM Tris/4 mM EDTA (pH 7.5) was added.

Or22a = biological target: T2, Or22a (Drosophila melanogaster, UniProt P81909); assay: Whole-cell patch-clamp of HEK293 cells expressing Or22a alone; format: cell-based; conditions: HEK293 cells transfected with Or22a alone, -60 mV, n = 6
T2 construct: expressed in transfected cells; host or cells: HEK293
T2 sequence (P81909 1-397): T1 sequence (P81909 1-397)
Description: HEK293 cells were cultured as described by Wicher and colleagues (Wicher et al., J. Biol. Chem. 281, 3227-36 (2006)). In brief, HEK293 cells were cultured at a density of ∼2*10^4 per 35-mm dish and transfected with 1 µg pcDNA3-DOR22a-GFP and 1 µg pcDNA3-DOR83b-GFP (Neuhaus, et al., Nat. Neurosci. 8, 15-17 (2005); DNAs were a generous gift of Dr. E. Neuhaus and Dr. H. Hatt) using Roti-Fect transfection kit (Roth, Karlsruhe, Germany). In some experiments we transfected cells with pcDNA3-DOR22a-GFP or pcDNA3-DOR83b-GFP alone. We also examined the properties of DOR47a, which was cloned, using standard molecular biology methods into a pcDNA3.1(-) expression vector. To test for putative G-protein coupling, cells were transfected with the respective OR-DNA together with 1.5 µg hHCN2/pcDNA3 (provided by M. Biel, Munich, Germany), with 1 µg hKCNQ4/pcDNA3.1 or with 1 µg hCNGA2/pCMV6-XL4 (Origene, Rockville, MD, USA).
Ion currents in HEK293 cells were measured with the patch-clamp technology as described (Wicher et al, J. Biol. Chem. 281, 3227-36 (2006)). In brief, ion currents in HEK293 cells were measured at room temperature using whole-cell patch-clamp with appropriate compensation of series resistance and of capacitive currents. Additional experiments were performed in the outside-out configuration. […]

**Q.** How did the cAMP level (Or22a and Or83b) turn out when `CCCC(=O)OCC` [Etb, ethyl butyrate] was run?
**A.** The cAMP level was 1.65 ± 0.10 pmol/mg protein.

**Q.** And the “inward current upon short Etb application” value (Or22a)?
**A.** Its value is “no current was observed”.
